Common to all, as to type: cell-based, human
Test [1] has as its system p53/p21 system in the HCT116 cells. The experiment in a line: Western blot of p53/p21 activation. The method, then:
Further exploration of the cell death model was performed by a western blot analysis of protein activation in response to incubation with the tested compound (Figs 6, 7). […] The proapoptotic activation of the p53/p21 system was noticeable after the first 12 hours and then became stronger after 24 h. This effect was not observed in the case of the p53 null cells, which were unable to synthesize this protein.
The HCT116 cells were seeded in 3-cm Petri dishes (Nunc) at a density of 0.5·10^6 cells/well and incubated overnight. […] The cells were harvested by trypsinization and washed with cold PBS. Next, the cells were centrifuged and suspended in an RIPA buffer (Thermo-Fisher Scientific) containing Halt Protease Inhibitor Cocktail (Thermo-Fisher Scientific), Halt Phosphatase Inhibitor Cocktail (Thermo-Fisher Scientific) along with 0.5 M EDTA and lysed for 20 min on ice. Then, the lysates were sonicated, centrifuged at 10,000 rpm for 10 min at 4 °C and the supernatants were collected for further analysis. The protein concentration was determined using a Micro BCA™ Protein Assay Kit (Thermo-Fisher Scientific, Waltham, MA, USA c) according to the manufacturer’s instructions. Equal amounts of the proteins (20 μg) were electrophoresed on SDS-Page gels and transferred onto nitrocellulose membranes. The membranes were blocked in 5% non-fat milk prepared in PBS containing 0.1% Tween-20 (TPBS) for 1 h. After blocking, the membranes were incubated with specific primary antibodies: p21^Waf1/Cip1, p53, cytochrome c, caspase-8, caspase-9, AIF, PARP, GAPDH and β-Actin overnight at 4 °C, and then washed and incubated with horseradish peroxidase (HRP)-conjugated secondary antibodies for 1 h at room temperature. All of the antibodies were purchased from CellSignaling (Danvers, MA, USA) and were diluted 1:1000 in 5% milk in TPBS. Finally, the membranes were washed and incubated with a SuperSignal™ West Pico Chemiluminescent Substrate (Thermo-Fisher Scientific). The chemiluminescence signals were captured using a ChemiDoc™ XRS+ System (Bio-Rad Laboratories, Hercules, CA, USA). The experiments were performed at least three times. Densitometric analysis was performed using ImageJ 1.41 software (Wayne Rasband, National Institutes of Health, USA).
Background: Immunoblotting shows a protein as a band on a membrane.

The next test has as its system HCT116^−/−. The experiment in a line: Antiproliferative assay (MTS, 72 h) on HCT116 with p53 deletion. Conditions: for IC50: Homo sapiens, HCT-116, MTS, 72 h incubation.
In a further test the test system is HCT116^+/+. The experiment in a line: Antiproliferative assay (MTS, 72 h) on HCT116 wild type. Conditions: for IC50: Homo sapiens, HCT-116.
The next test deals with HCT116 cells. The experiment in a line: AO/EB staining apoptosis assay. As to conditions: HCT116 p53^+/+ and p53^−/−, IC50 concentration. The procedure: Three compounds with a distinct activity were selected for further tests. […] The apoptosis of the cells that were treated with the active compounds was confirmed using the Acridine Orange (AO)/Ethidium Bromide (EB) staining test[70] (Fig. 5).
The dual acridine orange/ethidium bromide (AO/EB) staining method was used for the morphological analysis of apoptosis. The cells were seeded on coverslips at a density of 8·10^5 cells/slide and incubated at 37 °C for 48 h. Then, the medium was removed and solutions of 5 s, 5 u, 7 f and DOX at the IC50 concentration were added. After 24 h, the cells were washed with PBS, and then the cells were incubated in a staining solution (100 μg/mL AO and 100 μg/mL EB in PBS) (Sigma-Aldrich, St. Louis, MO, USA) for 3–4 min. After staining, the coverslips were washed with PBS and fixed with 3.7% paraformaldehyde for 15 min. Observations and photography were performed with a Nikon Eclipse Ni-U fluorescent microscope equipped with the sets of filters for AO and EB (excitation filter 450–490, barrier filter BA520).

Setting [2] is: p53 null cells, after the first 12 hours.
Where [3] appears, read: MTS, 72 h incubation, read-out: Activity IC50 HCT116^+/+.

Where two headings read alike, the source gives them in different places.

Consider `O=C(Nc1ccc(F)c(Cl)c1)c1ccc2ccccc2c1O` [5s], for which the p21 protein amount entry in test [1] (setting [2]) is on record as “small, insignificant increase”. Also, in the test with HCT116^−/−, the “selectivity towards the p53 null cells (HCT116 p53^−/− vs wild type)” value is given as “more than eight times more toxic” and the IC50 came out at 0.83 ± 0.31 µM. Further, the IC50 in the test on HCT116^+/+ (setting [3]) turned out to be 6.87 ± 2.48 µM. Moreover, the “apoptosis (AO/EB staining)” value with HCT116 cells is “early and late apoptotic cells”.

Consider `O=C(Nc1cc(C(F)(F)F)cc(C(F)(F)F)c1Cl)c1ccc2ccccc2c1O` [5u], for which the p21 protein amount entry in test [1] (setting [2]) is on record as “small, insignificant increase”. Moreover, the IC50 is 2.72 ± 0.63 µM in the test with HCT116^−/− and 0.72 ± 0.28 µM in the test with HCT116^+/+ (setting [3]). Besides, the “selectivity for the wild type over p53 null cells” value in the test with HCT116^+/+ is “roughly four times more active against the wild type”. For the same compound, the “apoptosis (AO/EB staining)” value in the test on HCT116 cells was “early and late apoptotic cells”.

As for `O=C(Nc1cc(C(F)(F)F)cc(C(F)(F)F)c1)c1ccc2ccccc2c1O` [7f], the p21 protein amount result in test [1] (either of the lines tested) is “did not increase p21”. Besides, the IC50 in the test on HCT116^−/− worked out at 0.35 ± 0.08 µM; with HCT116^+/+ (setting [3]) it was 0.46 ± 0.05 µM; in the test with HCT116^+/+ (submicromolar activity level, read-out: IC50 for the HCT116 wild type), 0.464 µM. Moreover, the “apoptosis (AO/EB staining)” value in the test on HCT116 cells was “early and late apoptotic cells”.

(Values after article PMC6476888, “Design and synthesis of anticancer 1-hydroxynaphthalene-2-carboxanilides with a p53 independent mechanism of action” (Scientific Reports, 2019).)
